Here are results for 3 compounds from patent US9023789B2, “Amylin analogs and pharmaceutical compositions thereof” (Novo Nordisk A/S, priority 2012, dated 2015).

In data set [1] the test system is Sprague Dawley (SD) rats. Kind of data set: ASSAY (I) efficacy testing on appetite (food intake) using an ad libitum fed rat model. It counts as in vivo. The note with it: rat, 30 nmol/kg. An outline of the steps:
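Ad libitum fed SD rats (200–250 g) were housed singly on a reversed light/dark cycle and given one 0.01–3 mg/kg dose ip, po or sc just before lights-off, with 5–8 per dose group plus vehicle controls. Food intake was recorded hourly for 7 h, then at 24 h and sometimes 48 h; Grubbs outliers were excluded.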

A short description of data set [2]: ASSAY (IV) determination of solubility. It counts as physicochemical. The procedure, abridged: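 Polypeptide in water at […] mixed 1:1 with 100 mM buffers of pH 3.0-8.0 (glycylglycine pH 3-5, bistrispropane pH 6-8). Held 18 h at room temperature, then centrifuged; concentration remaining in solution measured by UPLC.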
Data set [3] concerns the target T1, human amylin receptor (membranes from Amylin 3(a)/CRE-luc cells) (Homo sapiens, UniProt O60896+P30988).
T1 construct: expressed in transfected cells
T1 sequence (P30988 25-474): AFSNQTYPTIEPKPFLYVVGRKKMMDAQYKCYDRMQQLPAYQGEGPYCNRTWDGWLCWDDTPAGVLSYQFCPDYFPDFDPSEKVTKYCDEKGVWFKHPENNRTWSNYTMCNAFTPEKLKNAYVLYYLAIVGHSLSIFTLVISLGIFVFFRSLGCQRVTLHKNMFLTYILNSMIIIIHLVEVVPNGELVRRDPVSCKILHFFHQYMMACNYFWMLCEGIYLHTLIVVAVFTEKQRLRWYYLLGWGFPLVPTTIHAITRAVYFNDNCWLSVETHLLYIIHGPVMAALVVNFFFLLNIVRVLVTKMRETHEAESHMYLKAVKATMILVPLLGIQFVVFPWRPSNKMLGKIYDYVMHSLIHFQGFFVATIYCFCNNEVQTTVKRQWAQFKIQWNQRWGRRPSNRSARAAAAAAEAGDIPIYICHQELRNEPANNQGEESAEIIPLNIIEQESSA
T1 sequence (O60896 24-148 partner): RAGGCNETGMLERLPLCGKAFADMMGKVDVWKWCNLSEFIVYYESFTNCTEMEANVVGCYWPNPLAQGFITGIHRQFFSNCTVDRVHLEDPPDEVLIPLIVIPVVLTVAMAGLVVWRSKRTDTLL
Kind of data set: ASSAY (V) binding to the human amylin receptor (SPA, 125I-rat amylin).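 Also: competition binding of cell membranes (35 ng/µL) mixed with SPA beads in 384-well plates at 40 µL total volume, read by scintillation counting.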

Data set [4] concerns the target T2, rat calcitonin receptor (Rattus norvegicus, UniProt P32214).
T2 construct: expressed in transfected cells; host or cells: BHK tk'ts 13 (transient, FuGENE 6), membranes
T2 sequence (P32214 25-479 isoform P32214-2 limits assumed): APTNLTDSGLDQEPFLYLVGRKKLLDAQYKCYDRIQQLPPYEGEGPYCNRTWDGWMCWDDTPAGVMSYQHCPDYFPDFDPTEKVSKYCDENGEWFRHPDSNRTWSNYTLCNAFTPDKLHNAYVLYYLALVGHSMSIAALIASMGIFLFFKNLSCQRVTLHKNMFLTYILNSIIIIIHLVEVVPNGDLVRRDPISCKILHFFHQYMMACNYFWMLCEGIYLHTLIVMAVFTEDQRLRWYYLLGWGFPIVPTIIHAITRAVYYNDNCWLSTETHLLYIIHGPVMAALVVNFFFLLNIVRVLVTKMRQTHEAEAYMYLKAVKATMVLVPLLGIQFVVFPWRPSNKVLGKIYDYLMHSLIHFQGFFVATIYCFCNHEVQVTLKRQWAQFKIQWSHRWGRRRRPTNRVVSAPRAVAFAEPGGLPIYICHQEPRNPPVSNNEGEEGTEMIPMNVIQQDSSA
Kind of data set: ASSAY (VIII) binding to the rat calcitonin receptor. The note with it: Table 7, read-out: rCTR bind IC50. An outline of the steps:
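Membranes were prepared from BHK tk′ts 13 cells transiently transfected with rat calcitonin receptor. Cells were grown in DMEM with 10% FBS and harvested approximately 48 hours after transfection.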

Where [5] appears, read: bistrispropane buffer, pH 6.5, read-out: Solubility pH 6.5 Concentration.
[6] abbreviates: bistrispropane buffer, pH 7.5, read-out: Solubility pH 7.5 Concentration.
[7] abbreviates: bistrispropane buffer, pH 6.0, read-out: Solubility pH 6.0 Concentration.
[8] abbreviates: bistrispropane buffer, pH 7.0, read-out: Solubility pH 7.0 Concentration.
[9] abbreviates: bistrispropane buffer, pH 8.0, read-out: Solubility pH 8.0 Concentration.
The mark [10] stands for this setting: glycylglycine buffer, pH 3.0, read-out: Solubility pH 3.0 Concentration.
Where [11] appears, read: glycylglycine buffer, pH 4.0, read-out: Solubility pH 4.0 Concentration.
Where [12] appears, read: glycylglycine buffer, pH 5.0, read-out: Solubility pH 5.0 Concentration.
[13] abbreviates: Table 5, selectivity, hCTR bind IC50 / hAmylin-R bind IC50.
[14] abbreviates: Table 5a, selectivity, hCTR bind IC50 / hAmylin-R bind IC50.
Setting [15] is: Table 5b, selectivity, hCTR bind IC50 / hAmylin-R bind IC50.
Setting [16] is: Table 5c, selectivity, hCTR bind IC50 / hAmylin-R bind IC50.
Where [17] appears, read: Table 7, human binding selectivity, included for comparison.
[18] abbreviates: Table 7a (preferred compounds), human binding selectivity, included for comparison.
[19] abbreviates: ratio of human calcitonin receptor binding IC50 to human amylin receptor binding IC50.

In brackets after ≈: the same amount, converted by molar mass. Like-named read-outs stand apart in the source and are kept apart here. Numbered stars: 1 amine (or outer) side, 2 acyl side, 3 side chain; on linkers, the order of the positions; unused ones are H or OH. Bridge positions count the residues as written; N and C are the ends. Side chains are listed from the residue outwards. Peptide text beside a SMILES is read from it. * marks the point of attachment. C20 diacid = O=C(O)CCCCCCCCCCCCCCCCCCC(=O)*; γGlu = O=C(O)[C@H](CCC(=O)[*:2])N[*:1]

Consider `CC[C@H](C)[C@H](NC(=O)[C@H](C)NC(=O)CNC(=O)[C@H](Cc1ccccc1)NC(=O)[C@H](CC(N)=O)NC(=O)[C@@H]1CCCN1C(=O)[C@H](CO)NC(=O)[C@H](CO)NC(=O)[C@H](Cc1c[nH]cn1)NC(=O)[C@H](CCCNC(=N)N)NC(=O)[C@H](CC(C)C)NC(=O)[C@H](Cc1ccccc1)NC(=O)[C@H](CC(N)=O)NC(=O)[C@H](C)NC(=O)[C@H](CC(C)C)NC(=O)[C@H](CCCNC(=N)N)NC(=O)[C@H](CCC(N)=O)NC(=O)[C@@H](NC(=O)[C@H](C)NC(=O)[C@@H]1CSSC[C@H](NC(=O)[C@@H](N)CCCCNC(=O)CC[C@H](NC(=O)CCCCCCCCCCCCCCC(=O)O)C(=O)O)C(=O)N[C@@H](CC(N)=O)C(=O)N[C@@H]([C@@H](C)O)C(=O)N[C@@H](C)C(=O)N[C@@H]([C@@H](C)O)C(=O)N1)[C@@H](C)O)C(=O)N1CCC[C@H]1C(=O)N[C@@H](CO)C(=O)N[C@@H](CO)C(=O)N[C@H](C(=O)N[C@@H](CC(N)=O)C(=O)N[C@H](C(=O)NCC(=O)N[C@@H](Cc1c[nH]cn1)C(=O)N[C@@H](CC(N)=O)C(=O)N[C@H](C(=O)N[C@@H](Cc1ccc(O)cc1)C(N)=O)[C@@H](C)O)C(C)C)[C@@H](C)O` [Example 111], for which the “Food intake reduction 0-24 h 30 nmol/kg (%)” value in data set [1] was 17%. For the same compound, the “Food intake reduction 24-48 h 30 nmol/kg (%)” value in data set [1] is 0%. Further, the solubility at 18 h in data set [2] (setting [5]) is at least 200 µM; in data set [2] (setting [6]) it was at least 200 µM; in data set [2] (setting [7]) it was at least 200 µM; in data set [2] (setting [8]), at least 200 µM; in data set [2] (setting [9]) it was 165 µM (≈ 722 µg/mL); in data set [2] (setting [10]), at least 200 µM. Also, the solubility at 18 h in data set [2] (setting [11]) and in data set [2] (setting [12]) was at least 200 µM in each case. Further, the “Ratio hCT/hAmylin binding” value in data set [3] (setting [13]), in data set [3] (setting [14]), in data set [3] (setting [15]), in data set [3] (setting [16]), in data set [3] (setting [17]) and in data set [3] (setting [18]) was 18.5 in each case. Further, the “Ratio hCT/hAmylin binding” value in data set [3] (setting [19]) came to 18.5. For the same compound, the 50% inhibitory concentration (IC50) in data set [4] is 404 nM.

With `CC[C@H](C)[C@H](NC(=O)[C@H](C)NC(=O)CNC(=O)[C@H](Cc1ccccc1)NC(=O)[C@H](CC(N)=O)NC(=O)[C@@H]1CCCN1C(=O)[C@H](CO)NC(=O)[C@H](CO)NC(=O)[C@H](Cc1c[nH]cn1)NC(=O)[C@H](CCCNC(=N)N)NC(=O)[C@H](CC(C)C)NC(=O)[C@H](Cc1ccccc1)NC(=O)[C@H](CC(N)=O)NC(=O)[C@H](C)NC(=O)[C@H](CC(C)C)NC(=O)[C@H](CCCNC(=N)N)NC(=O)[C@H](CCC(N)=O)NC(=O)[C@@H](NC(=O)[C@H](C)NC(=O)[C@@H]1CSSC[C@H](NC(=O)[C@H](CCCCN)NC(=O)CC[C@H](NC(=O)CCCCCCCCCCCCCCCCCCC(=O)O)C(=O)O)C(=O)N[C@@H](CC(N)=O)C(=O)N[C@@H]([C@@H](C)O)C(=O)N[C@@H](C)C(=O)N[C@@H]([C@@H](C)O)C(=O)N1)[C@@H](C)O)C(=O)N1CCC[C@H]1C(=O)N[C@@H](CO)C(=O)N[C@@H](CO)C(=O)N[C@H](C(=O)N[C@@H](CC(N)=O)C(=O)N[C@H](C(=O)NCC(=O)N[C@@H](CO)C(=O)N[C@@H](CCCCN)C(=O)N[C@H](C(=O)N[C@@H](Cc1ccc(O)cc1)C(N)=O)[C@@H](C)O)C(C)C)[C@@H](C)O` [Example 34], in data set [1], the “Food intake reduction 0-24 h 30 nmol/kg (%)” value was found to be 37%. The “Food intake reduction 24-48 h 30 nmol/kg (%)” value in data set [1] was determined as 25%. Further, the solubility at 18 h in data set [2] (setting [5]), in data set [2] (setting [6]), in data set [2] (setting [7]), in data set [2] (setting [8]), in data set [2] (setting [9]) and in data set [2] (setting [10]) was at least 200 µM throughout. The solubility at 18 h in data set [2] (setting [11]) and in data set [2] (setting [12]) was at least 200 µM in each case. Further, the “Ratio hCT/hAmylin binding” value in data set [3] (setting [13]), in data set [3] (setting [14]), in data set [3] (setting [15]), in data set [3] (setting [16]), in data set [3] (setting [17]) and in data set [3] (setting [18]) was 64.4 throughout. In addition, in data set [3] (setting [19]), the “Ratio hCT/hAmylin binding” value is recorded as 64.4. Moreover, the IC50 in data set [4] stood at 89.2 nM.

For the compound `CC[C@H](C)[C@H](NC(=O)[C@H](C)NC(=O)CNC(=O)[C@H](Cc1ccccc1)NC(=O)[C@H](CC(N)=O)NC(=O)[C@@H]1CCCN1C(=O)[C@H](CO)NC(=O)[C@H](CO)NC(=O)[C@H](Cc1c[nH]cn1)NC(=O)[C@H](CCCNC(=N)N)NC(=O)[C@H](CC(C)C)NC(=O)[C@H](Cc1ccccc1)NC(=O)[C@H](CCCNC(=N)N)NC(=O)[C@H](C)NC(=O)[C@H](CC(C)C)NC(=O)[C@H](CCCNC(=N)N)NC(=O)[C@H](CCC(N)=O)NC(=O)[C@@H](NC(=O)[C@H](C)NC(=O)[C@@H]1CSSC[C@H](NC(=O)[C@@H](N)CCCCNC(=O)CC[C@H](NC(=O)CCCCCCCCCCCCCCCCCCC(=O)O)C(=O)O)C(=O)N[C@@H](CC(N)=O)C(=O)N[C@@H]([C@@H](C)O)C(=O)N[C@@H](C)C(=O)N[C@@H]([C@@H](C)O)C(=O)N1)[C@@H](C)O)C(=O)N1CCC[C@H]1C(=O)N[C@@H](CO)C(=O)N[C@@H](CO)C(=O)N[C@H](C(=O)N[C@@H](CC(N)=O)C(=O)N[C@H](C(=O)NCC(=O)N1CCC[C@H]1C(=O)N[C@@H](CC(N)=O)C(=O)N[C@H](C(=O)N[C@@H](Cc1ccc(O)cc1)C(N)=O)[C@@H](C)O)C(C)C)[C@@H](C)O` [Example 65] (H-K([γGlu-C20 diacid])CNTATCATQRLARFLRHSSPNFGAIPSSTNVGPNTY-NH2; disulfide 2-7 (inferred); N-terminus assumed), the “Food intake reduction 0-24 h 30 nmol/kg (%)” value in data set [1] was found to be 10%. Further, in data set [1], the “Food intake reduction 24-48 h 30 nmol/kg (%)” value turned out to be 0%. For the same compound, the solubility at 18 h in data set [2] (setting [5]), in data set [2] (setting [6]), in data set [2] (setting [7]), in data set [2] (setting [8]), in data set [2] (setting [9]) and in data set [2] (setting [10]) was at least 200 µM throughout. The solubility at 18 h in data set [2] (setting [11]) and in data set [2] (setting [12]) was at least 200 µM throughout. Moreover, the IC50 stood at 0.649 nM in data set [3] (Table 4, read-out: hAmylin-R bind IC50) and 108 nM in data set [4]. For the same compound, the “Ratio hCT/hAmylin binding” value in data set [3] (setting [13]), in data set [3] (setting [14]), in data set [3] (setting [15]), in data set [3] (setting [16]), in data set [3] (setting [17]) and in data set [3] (setting [18]) was 82.4 throughout. Further, the “Ratio hCT/hAmylin binding” value in data set [3] (setting [19]) worked out at 82.4.
